The values below come from patent publication US5420261A, “Glycosides of 3'-deoxyaquayamycin antibiotics” (Schering Corporation, priority 1992, dated 1995).

Converted amounts (≈) assume the structure as drawn. Like-named read-outs stand apart in the source and are kept apart here.

Broadly, the MIC is the lowest concentration found to suppress growth.

One series deals with Candida (8 species). Briefly: In vitro antifungal activity in Sabouraud dextrose broth, Candida (8 species). Conditions: read-out: GEOMETRIC MEAN MIC. Type of series: cell-based.
Series [1] concerns Dermatophytes (seven species). The experiment in a line: In vitro antifungal activity in Sabouraud dextrose broth, dermatophytes (seven species). Type of series: cell-based. Conditions: read-out: GEOMETRIC MEAN MIC.
For another series, the system named is Mycelial. Briefly: In vitro activity in Eagles Medium Essential Medium (EMEM), Mycelial. Type of series: cell-based. To be noted: read-out: GEOMETRIC MEAN MIC.
The next series deals with S. aureus. The experiment in a line: Bioautography after thin layer chromatography, S. aureus. It is filed as cell-based. Conditions: TLC in 2:2:1 chloroform: methanol: pH 3.5 acetate buffer. An excerpt: (§1) The medium employed for the fermentation contained beef extract, tryptone, yeast extract, cerelose and soluble starch as the major sources of nitrogen and carbon, respectively.

A further series deals with E. coli. The experiment in a line: Bioautography after thin layer chromatography, E. coli. It is filed as cell-based. Conditions: TLC in 2:2:1 chloroform: methanol: pH 3.5 acetate buffer.
From the text: as §1

The subject of a further series is C. abicans. The experiment in a line: Bioautography after thin layer chromatography, C. abicans. To be noted: TLC in 2:2:1 chloroform: methanol: pH 3.5 acetate buffer. Type of series: cell-based.
From the text: as §1

The nature of the next series: Solubility. It is filed as physicochemical.
Where [2] appears, read: Sabouraud Dextrose Broth Medium, Candida (8 species).
Setting [3] is: Sabouraud Dextrose Broth Medium, Dermatophytes (seven species).

Take `COc1cccc2c1C(=O)c1c(O)c3c(c(O)c1C2=O)C[C@@](O)(C(=O)CO)C[C@@H]3O[C@H]1C[C@H](N)[C@H](O)[C@H](C)O1` [Adriamycin, reference compound]: the minimal inhibitory concentration (MIC) is ≥ 128 µg/mL in the series with Candida (8 species) (Candida), ≥ 128 µg/mL in series [1] and 128 µg/mL (≈ 235 µM) in the series with Mycelial.

As to `CC1OC(OC2(C)CC(=O)C3(O)C4=C(C=CC3(O)C2)C(=O)c2c(ccc(C3CCC(OC5CCC(O)C(C)O5)C(C)O3)c2O)C4=O)C=CC1=O` (stereo not drawn) [Compound 1b], the MIC with Candida (8 species) (setting [2]) was ≥ 128 µg/mL; in series [1] (setting [3]), ≥ 132 µg/mL; in the series with Mycelial, 95 µg/mL (≈ 137 µM). The “biological activity by bioautography” value with S. aureus, in the series with E. coli and in the series with C. abicans was “biologically active” throughout. For the same compound, in the series “Solubility”, the “solubility in dichlormethane, chloroform and dimethyl sulfoxide” value is “soluble in dichlormethane, chloroform and dimethyl sulfoxide”. Also, the “solubility in hexane and water” value in “Solubility” is “insoluble in hexane and water”. Also, the “solubility in methanol, diethyl ether and ethyl acetate” value in “Solubility” was “less soluble in methanol, diethyl ether and ethyl acetate”.

`CC1OC(OC2CCC(c3ccc4c(c3O)C(=O)C3=C(C4=O)C4(O)C(=O)CC(C)(OC5C=CC(=O)C(C)O5)CC4(O)C=C3)OC2C)C=CC1=O` (stereo not drawn) [Compound 1a]: the values for the minimum inhibitory concentration (MIC) (with Candida (8 species) (setting [2]); in series [1] (setting [3]); in the series with Mycelial) were ≥ 43 µg/mL, ≥ 5 µg/mL and 78 µg/mL (≈ 113 µM), respectively. Further, the “biological activity by bioautography” value in the series with S. aureus, in the series with E. coli and in the series with C. abicans was “biologically active” throughout. Also, the “solubility in dichlormethane, chloroform and dimethyl sulfoxide” value in the series “Solubility” was “soluble in dichlormethane, chloroform and dimethyl sulfoxide”. In “Solubility”, the “solubility in hexane and water” value was “insoluble in hexane and water”. Also, the “solubility in methanol, diethyl ether and ethyl acetate” value in the series “Solubility” was “less soluble in methanol, diethyl ether and ethyl acetate”.
